For orientation: IC50 means the concentration that gives 50% inhibition.

Series [1] concerns murine primary T cells. In words: ELISA of cytokines in supernatants of anti-CD3/CD28-stimulated murine primary T cells. Particulars: anti-CD3 plus anti-CD28. Format: cell-based. The text has this:
Primary human T cells were freshly isolated and negatively selected from the PBLs of clinical samples using a cocktail of biotin-conjugated anti-CD19, anti-CD14, and anti-CD11b antibodies (BioLegend) on a magnetic cell separation column (Miltenyi Biotec, Bergisch Gladbach, Germany) ([26]). In addition, primary murine T cells were negatively selected from the spleens of mice using magnetically coupled antibodies against CD11b, B220, CD49b, CD235, and TER-119 (Miltenyi Biotec) ([18]).
We further studied whether IL-17A production is abolished by verteporfin in human and murine T cells. We first tested the inhibitory effect of verteporfin in murine T cells stimulated with T-cell receptor (TCR) signaling (anti-CD3 plus anti-CD28 antibodies). […] This reduction is likely due to the inhibition of NF-κB activation ([18]) by the verteporfin treatment. This notion is supported by our published results that TCR-induced TNF-α and IFN-γ levels in T cells are inhibited by IKK-β conditional knockout ([18]). Next, we studied whether verteporfin attenuates IL-17A production using human peripheral blood T cells with stimulation. The levels of T-cell–secreted IL-17A in unstimulated T cells from patients with SLE and RA were enhanced compared with those from healthy controls (Fig. 5B). […] GLK overexpression in T cells selectively induces IL-17A production in Lck-GLK Tg mice ([18]). […] The inhibition of the production of other cytokines by the high-dose but not low-dose verteporfin treatment may be due to a requirement of higher concentration of verteporfin for an efficient inhibition of NF-κB activation.
Figure 5 Verteporfin (C1) blocks IL-17 production of human T cells. A) ELISA of various cytokines in supernatants of murine primary T cells stimulated with anti-CD3 or CD28 and cotreated with C1 (5 or 10 μM) for 3 d. Means ± SD are shown; n = 3/group. B) ELISA of various cytokines in supernatants of human T cells. T cells were stimulated with anti-CD3 or CD28 and cotreated with C1 (1 or 5 μM) for 3 d. HC, healthy control; N.S., not significant. Means ± SD are shown. *P < 0.05, **P < 0.01, ***P < 0.001 (2-tailed Student’s t test).
In general terms: ELISA stands for enzyme-linked immunosorbent assay.

A further series deals with AhR–ROR-γt complex. As to the kind of experiment: In situ proximity ligation assay in peripheral blood T cells from patients with SLE or RA. Format: cell-based, human. Particulars: 5 μM for 30 min; T cells from patients with SLE and RA. Here is the method:
(§1) Proximity ligation assays (PLAs) were performed using the Duolink In Situ Red Starter Kit (MilliporeSigma) according to the manufacturer’s instructions ([24]). Briefly, cells were incubated with rabbit or mouse primary antibodies for the AhR–plus–ROR-γt pair, followed by species-specific secondary antibodies that are conjugated with oligonucleotides (PLA probes). After ligation and amplification reactions for 100 min, the PLA signals from each pair of PLA probes in close proximity (<40 nm) were visualized as individual red dots by a confocal microscope (TCS SP5II; Leica Microsystems, Buffalo Grove, IL, USA). Red dots represent direct interaction signals.
(§2) After verification of the induction of GLK–AhR–ROR-γt–IL-17A signaling in human SLE T cells, we next studied whether the GLK–AhR–ROR-γt signaling is a therapeutic target for autoimmune diseases. Because there are no known commercial GLK inhibitors, we performed high-throughput screening of 101,200 compounds to identify GLK inhibitors using both cell-based luciferase reporter assays and in vitro kinase assays. […] Nevertheless, the IC50 of verteporfin for MAP4K3-GLK was the lowest one. […]
(§3) Figure 3 Verteporfin (C1) blocks the AhR–ROR-γt complex in human autoimmune T cells. […] D) Quantification of the PLA signals shown in panel C. *P < 0.05, ***P < 0.001 (2-tailed Student’s t test).

For series [2], the system named is AhR–phosphorylated ROR-γt (Ser-489) complex. Described as above. Particulars: 5 μM for 30 min; T cells from patients with SLE and RA. It is filed as cell-based, human. Here is the method:
as §1, §2, §3

The target in the next series is T1, GLK (MAP4K3) (Homo sapiens, UniProt Q8IVH8).
T1 construct: Recombinant proteins of kinase domains of various MAP4Ks were used; purchased Promega
T1 sequence (Q8IVH8 16-273 limits assumed): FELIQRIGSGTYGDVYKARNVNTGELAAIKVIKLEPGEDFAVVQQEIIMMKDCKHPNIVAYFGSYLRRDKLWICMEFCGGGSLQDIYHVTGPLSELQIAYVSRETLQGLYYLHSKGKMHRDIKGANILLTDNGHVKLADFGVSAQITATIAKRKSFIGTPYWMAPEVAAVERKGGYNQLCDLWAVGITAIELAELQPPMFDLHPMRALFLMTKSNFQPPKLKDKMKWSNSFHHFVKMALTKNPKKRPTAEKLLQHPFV
In words: In vitro kinase assay, myelin basic protein as substrate (ADP-Glo). Format: biochemical. Particulars: recombinant kinase domain. The procedure: GLK kinase activity was determined by measuring the rate of ADP production in the in vitro kinase reaction using ADP-Glo Kinase Assay Kit (Promega). For the kinase reaction, recombinant proteins of the GLK kinase domain (1 μg) were incubated with recombinant proteins of kinase-dead PKC-θ (K409W; 0.15 μg) plus ATP (0.1 mM) or myelin basic protein (MilliporeSigma) plus ATP (0.1 mM) in kinase buffer [40 mM Tris-HCl (pH 7.5), 20 mM MgCl2, 0.1 mg/ml bovine serum albumin, 10 mM DTT, and 0.1 mM Na3VO4] for 30 min at room temperature.
On the technique in general: ADP-Glo turns the ADP formed in a reaction into a luminescent signal.

Series [3] relates to murine primary T cells. In words: Cell death of murine primary T cells (Fixable Viability Stain 780, flow cytometry). Format: cell-based. Particulars: 1 or 5 μM for 3 d, anti-CD3/CD28 stimulated. Here is the method: Supplementary Figure 4. […] Murine primary T cells were stimulated with anti-CD3/CD28 and co-treated with verteporfin (C1) (1 or 5 μM) for 3 days. Dead T cells were labeled with Fixable Viability Stain 780 (FVS 780; BD Biosciences) and then determined by flow cytometry. Data shown are representatives of four independent experiments.

For the substance verteporfin, in the series on murine primary T cells [1] (5 or 10 μM for 3 d), the “TCR-induced IL-17A production” value is given as “drastically abolished”; the “TCR-induced IL-17B, IL-17E, and IL-17F levels” value is given as “not significantly decreased”; the “TCR-induced TNF-α levels” value is on record as “slightly but not significantly reduced”. For the same substance, the “TCR-induced IFN-γ levels” value in the series with murine primary T cells [1] (high-dose 10 μM for 3 d) is listed as “significantly inhibited”. Further, the “AhR–ROR-γt complex (PLA signals)” value in the series with AhR–ROR-γt complex is “significantly inhibited”. Moreover, in series [2], the “AhR–phosphorylated ROR-γt complex (PLA signals)” value is listed as “significantly inhibited”. Also, at GLK (MAP4K3), the IC50 came to 1.15 nM. For the same substance, the “cell death of murine primary T cells” value in the series with murine primary T cells [3] is “did not enhance cell death”. Also, in the series on murine primary T cells [3] (listed as Verteporfin), the “cell death of murine primary T cells” value is on record as “does not induce cell death”.

(Values after paper PMC6766655, “AhR–ROR-γt complex is a therapeutic target for MAP4K3/GLK^highIL-17A^high subpopulation of systemic lupus erythematosus” (The FASEB Journal, 2019).)
